Columns and labels:
[1] = molecular target: PKMYT1 (Homo sapiens (Human), UniProt Q99640); assay: PKMYT1 HTRF Assay; type: binding; conditions: Tracer 178, GST-Tb, read-out: MYT1 HTRF IC50
Procedure: Example A: PKMYT1 HTRF Assay
Compound serial dilution was performed by Echo, and the final concentrations vary from 10 μM to 0.5 nM. This was filled by the addition of 5 μL/well of Enzyme solution to the assay plate containing the compound. The plate was centrifuged at 1000 rpm for 1 minute, and incubate 15 minutes at 25° C. Then 5 μL/well of tracer solution (Tracer 178) was added to initiate the reaction, and incubate for 60 minutes at 25° C. Next 5 μL GST-Tb was added into the assay plate, the plate was centrifuged at 1000 rpm for 1 minute, and incubate for 15 minutes at 25° C. The assay plate was read on Envision.

[2] = molecular target: WEE1 (Homo sapiens (Human), UniProt P30291); assay: WEE1 ADP-Glo Assay; type: biochemical; conditions: luminescence
Procedure: Example B: WEE1 ADP-Glo Assay
Compound serial dilution is performed by Echo, and the final concentrations vary from 10 μM to 0.5 nM. This was filled by the addition of 5 μL/well of Enzyme solution to the assay plate containing the compound. The plate was centrifuged at 1000 rpm for 1 minute, and incubate 15 minutes at 25° C. Then 5 μL/well of substrate solution was added to initiate the reaction, and incubate for 60 minutes at 25° C. Next 10 μL kinase detection reagent was added into the assay plate, the plate was centrifuged at 1000 rpm for 1 minute, and incubate for 60 minutes at 25° C. The assay plate was read on Envision for US LUM as RLU.

PKMYT1, sequence (Q99640 whole entry, species assumed): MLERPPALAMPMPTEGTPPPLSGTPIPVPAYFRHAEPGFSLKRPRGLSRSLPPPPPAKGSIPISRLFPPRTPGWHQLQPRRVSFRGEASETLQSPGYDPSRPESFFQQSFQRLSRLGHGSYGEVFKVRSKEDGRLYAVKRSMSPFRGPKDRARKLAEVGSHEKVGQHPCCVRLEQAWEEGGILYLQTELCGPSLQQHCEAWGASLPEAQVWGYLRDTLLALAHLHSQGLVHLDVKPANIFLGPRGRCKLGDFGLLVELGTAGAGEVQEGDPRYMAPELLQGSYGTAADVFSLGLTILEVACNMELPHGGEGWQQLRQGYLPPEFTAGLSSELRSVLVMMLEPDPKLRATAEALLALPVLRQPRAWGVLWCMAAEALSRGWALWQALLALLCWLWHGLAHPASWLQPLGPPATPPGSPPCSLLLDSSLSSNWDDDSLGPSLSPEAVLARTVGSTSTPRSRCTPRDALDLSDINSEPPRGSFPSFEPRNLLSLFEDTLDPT
WEE1, sequence (P30291 whole entry, species assumed): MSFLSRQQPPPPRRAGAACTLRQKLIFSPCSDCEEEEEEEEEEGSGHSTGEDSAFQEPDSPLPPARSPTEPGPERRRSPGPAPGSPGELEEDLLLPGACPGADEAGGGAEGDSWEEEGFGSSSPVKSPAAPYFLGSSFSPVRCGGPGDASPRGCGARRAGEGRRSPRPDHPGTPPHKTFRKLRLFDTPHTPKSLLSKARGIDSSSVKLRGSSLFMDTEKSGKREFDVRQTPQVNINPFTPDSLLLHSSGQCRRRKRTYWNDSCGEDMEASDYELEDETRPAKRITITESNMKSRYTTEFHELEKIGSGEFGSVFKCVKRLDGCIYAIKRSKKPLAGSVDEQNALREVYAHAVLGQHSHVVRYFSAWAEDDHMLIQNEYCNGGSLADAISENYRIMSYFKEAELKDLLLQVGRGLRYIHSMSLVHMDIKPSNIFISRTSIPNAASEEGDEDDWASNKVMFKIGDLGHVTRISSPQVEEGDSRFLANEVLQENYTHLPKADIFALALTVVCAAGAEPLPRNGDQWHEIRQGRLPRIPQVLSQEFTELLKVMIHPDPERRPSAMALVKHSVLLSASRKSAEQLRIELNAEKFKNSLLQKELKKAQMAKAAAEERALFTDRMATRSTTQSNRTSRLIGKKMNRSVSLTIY

SMILES | IC50 [1] | IC50 [2]
Cc1ccc(O)c(C)c1-n1nc(-c2ncc3n2CCCC3)c(C(N)=O)c1N [Example 11, 5-amino-1-(3-hydroxy-2,6-dimethylphenyl)-3-(5,6,7,8-tetrahydroimidazo[1,5-a]pyridin-3-yl)-1H-pyrazole-4-carboxamide] | 50 to 500 nM | 
Cc1ccc(O)c(C)c1-n1nc(-c2ccn(C(F)F)n2)c(C(N)=O)c1N [Example 9, 5-amino-1′-(difluoromethyl)-1-(3-hydroxy-2,6-dimethylphenyl)-1H,1′H-[3,3′-bipyrazole]-4-carboxamide] | < 10 nM | 50 to 500 nM
Cc1ccc(O)c(C)c1-n1nc(-c2ccn(CC(C)(C)O)n2)c(C(N)=O)c1N [Example 8, 5-amino-1-(3-hydroxy-2,6-dimethylphenyl)-1′-(2-hydroxy-2-methylpropyl)-1H,1′H-[3,3′-bipyrazole]-4-carboxamide] | 50 to 500 nM | > 5000 nM
Cc1c(O)ccc(Cl)c1-n1nc(-c2nccs2)c(C(N)=O)c1N [Example 6, 5-amino-1-(6-chloro-3-hydroxy-2-methylphenyl)-3-(thiazol-2-yl)-1H-pyrazole-4-carboxamide] | < 10 nM | 50 to 500 nM
Cc1ccc(O)c(C)c1-n1nc(-c2nc(C(F)(F)F)cs2)c(C(N)=O)c1N [Example 3, 5-amino-1-(3-hydroxy-2,6-dimethylphenyl)-3-(4-(trifluoromethyl)thiazol-2-yl)-1H-pyrazole-4-carboxamide] | < 10 nM | 50 to 500 nM
Cc1ccc(O)c(C)c1-n1nc(-c2nccs2)c(C(N)=O)c1N [Example 2, 5-amino-1-(3-hydroxy-2,6-dimethylphenyl)-3-(thiazol-2-yl)-1H-pyrazole-4-carboxamide] |  | 50 to 500 nM
Cc1cnc(-c2nn(-c3c(C)ccc(O)c3C)c(N)c2C(N)=O)s1 [Example 5, 5-amino-1-(3-hydroxy-2,6-dimethylphenyl)-3-(5-methylthiazol-2-yl)-1H-pyrazole-4-carboxamide] | < 10 nM | 
Cc1ccc(O)c(C)c1-n1nc(-c2nc3cnccc3s2)c(C(N)=O)c1N [Example 7, 5-amino-1-(3-hydroxy-2,6-dimethylphenyl)-3-(thiazolo[4,5-c]pyridin-2-yl)-1H-pyrazole-4-carboxamide] | 10 to 50 nM | 500 to 5000 nM
Cc1ccc(O)c(C)c1-n1nc(-c2nccs2)c(C(N)=O)c1N [Example 1, 5-amino-1-(3-hydroxy-2,6-dimethylphenyl)-3-(thiazol-2-yl)-1H-pyrazole-4-carboxamide] | < 10 nM | 50 to 500 nM
Cc1csc(-c2nn(-c3c(C)ccc(O)c3C)c(N)c2C(N)=O)n1 [Example 4, 5-amino-1-(3-hydroxy-2,6-dimethylphenyl)-3-(4-methylthiazol-2-yl)-1H-pyrazole-4-carboxamide] | < 10 nM | 
Cc1ccc(O)c(C)c1-n1nc(-c2ccc(C(F)(F)F)cn2)c(C(N)=O)c1N [Example 10, 5-amino-1-(3-hydroxy-2,6-dimethylphenyl)-3-(5-(trifluoromethyl)pyridin-2-yl)-1H-pyrazole-4-carboxamide] | 10 to 50 nM | 500 to 5000 nM
